What was measured:
MV4.11 = assay: Proliferation assay (MTT, 72 hours); type: cell-based; details: Homo sapiens
Experimental: (§1) Cells were seeded in 96-well microtitre plates. Compounds (in DMSO) were added to each well (at a final concentration of 10 μM). The medium was removed from the cells and replaced with 0.2 ml of medium containing either compound for 72 hours and then processed for MTT assay (Promega Corp, Madison, WI, USA) N = 6.
(§2) Figure 1 Cellular response to ETP-45658. […] Seventy-two hours post treatment, MTT assays were conducted. (B) Dose- and time-dependent analysis of Ser473 phosphorylation of AKT phosphorylation by 100nM ETP-45658 or PI-103 treatment. MCF-7 or U2OS cells were treated with the indicated concentrations (μM) of ETP-45658 (or PI-103) for four hours, then total protein was extracted and immunoblotted. For nuclear FOXO analysis, nuclear protein fractions were collected four hours post ETP-45658 (or PI-103) treatment. Nuclear FOXO3a levels were measure by immunoblotting. Nuclear fractions were confirmed by probing for lamin A/C. (C) FACS profile of MCF-7 or U2OS following 100 nM ETP-45658 treatment (20,000 events scored, N = 5). (D) Heat map for the top 100 differentially expressed genes based on hierarchical clustering using Euclidean distance metric. Red and green indicate genes that induced or repressed respectively by ETP-45658 or PI-103. Black indicates no change (N = 4). […] Numbers indicate number of genes that are exclusive to that particular category.

MCF-7 = assay: Proliferation assay (MTT, 72 hours); type: cell-based; details: Homo sapiens, MCF7
Experimental: as §1, §2

T47D = assay: Proliferation assay (MTT, 72 hours); type: cell-based; details: Homo sapiens
Experimental: as §1, §2

HCT-116 = assay: Proliferation assay (MTT, 72 hours); type: cell-based; details: Homo sapiens
Experimental: as §1, §2

NCIH460 = assay: Proliferation assay (MTT, 72 hours); type: cell-based; details: Homo sapiens, NCI-H460
Experimental: as §1, §2

PC3 = assay: Proliferation assay (MTT, 72 hours); type: cell-based; details: Homo sapiens, PC-3
Experimental: as §1, §2

nuclear FOXO3a = assay: Immunoblot of nuclear fractions for FOXO3a in MCF-7 or U2OS cells; type: cell-based, human; details: nuclear fractions of treated MCF-7 or U2OS cells
Experimental: as §2

[1] = system: FOXO3a promoter recruitment in MCF-7 or MDA-MB231 cells; assay: Chromatin immunoprecipitation (ChIP) for FOXO3a promoter recruitment; type: cell-based, human; details: by six hours post treatment
Experimental: Chromatin immunoprecipitation (ChIP) assays were performed essentially the same as described in [28]. Briefly, cells were fixed with 1% formaldehyde, and then whole-cell lysates were prepared. Protein lysate was subjected to ChIP with the indicated antibodies, followed by DNA purification (Invitrogen, Waltham, MA, USA). ChIP-enriched DNA was analyzed by PCR with the indicated primer sets (Table S1 in Additional file 3) purchased from NZYTech (Lisbon, Portugal). Visualization of bands was achieved using a BioRad Chemidoc XRS+ (BioRad) and quantified using the Image Lab software (BioRad).
Figure 5 Chromatin immunoprecipitation analysis for FOXO3a promoter recruitment. (A) Chromatin immunoprecipitation (ChIP) assays for FOXO3a following ETP-45658 treatment at three or six hours of MCF-7 or MDA-MB231 cells for […], CDKN1B, BCL2L11or FASLG. IgG indicates no specific antibody used and for simplicity, only inputs from our MCF-7 samples are shown. (B and C) Quantification of our ChIP gels normalised to inputs from each respective cell line. Error bars indicate standard deviation, N = 3.

With Oc1cccc(-c2nc(N3CCOCC3)c3oc4ncccc4c3n2)c1 [PI-103] the GI50 (MV4.11) was 0.05 µM, the GI50 (MCF-7) was 0.5 µM and the GI50 (T47D) was 0.34 µM. The GI50 (HCT-116) was 1.67 µM, the GI50 (NCIH460) was 1.31 µM and the GI50 (PC3) was 0.05 µM.
Cn1ncc2c(N3CCOCC3)nc(-c3cccc(O)c3)nc21 [ETP-45658] was tested, and the “nuclear FOXO3a level” value (nuclear FOXO3a) was “significant accumulation” and the “FOXO3a promoter recruitment (CCNG2, CDKN1B, BCL2L11, FASLG)” value [1] was “statistically significant FOXO3a promoter recruitment”.
